Test results published in patent EP4640672A1, “ETHYLENEDIAMINE DERIVATIVE, AND PREPARATION METHOD THEREFOR AND USE THEREOF” (Jiangsu Protelight Pharmaceutical & Biotechnology Co., Ltd., priority 2022, dated 2024).

What was measured:
[1] = test system: A549 lung cancer cells; assay: in vivo anti-tumor efficacy assay, subcutaneous tumor model; settings: BALB/c nude mice, intraperitoneally 20 mg/kg once per two days, 10 times; for Tumor inhibition rate: calculated from tumor weight; for Mean tumor weight (g) (mean ± SD): weighed on 2nd day after last administration
Protocol: An in vivo efficacy evaluation model was established in BALB/c nude mice. Each mouse was inoculated subcutaneously with 0.15 mL of tumor cell suspension (A549 lung cancer cells, 2 x 10^7 cells/ml) in the axillary fossa of the right forelimb. When the inoculated cells grew to 300 mm^3, the administration was started. On the 22nd day after inoculation, the mice were intraperitoneally administered (20 mg/kg) once per two days for a total of 10 times. On the 2nd day after the last administration, all the tumor-bearing mice were sacrificed, the tumors were weighed and the tumor inhibition rate was calculated. […] Table 3 Results of in vivo anti-tumor activity of the example compounds

[2] = test system: Liver cancer HepG2; assay: in vitro anti-tumor activity assay (MTT method); assay type: cell-based, human; settings: Liver cancer HepG2, culture medium High-sugar DMEM, 48 h of culture
Protocol: (§1) Five human tumor cell lines were selected and cultured in RPMI-1640 (Gibco) or DMEM (Gibco) or GMEM/F12 medium (Gibco) containing 10% inactivated fetal bovine serum, 100 U/ml penicillin and […] streptomycin in an incubator containing 5% CO2 at 37°C. Logarithmically growing cells were seeded in 96-well plates (100 µl per well, 2 x 10^4 cells) using the MTT method, while setting blank control wells. After overnight incubation in the incubator, 100 µl of drug (final concentration 25 µM diluted to 0.39 µM, a total of 7 groups of drug concentrations) was added, an equal volume of culture medium was added in the blank control wells, and 3 duplicate wells were set for each drug concentration. After 48 h of culture, the supernatant was discarded. After washing twice with PBS, 100 µl of MTT (5mg/ml) was added to each well, and the culture was continued for 2 h. Absorbance (A492nm) was measured by a microplate reader to calculate the inhibition rate of the drug on tumor cells.
(§2) IC50 values of compounds on tumor cells were calculated using GraphPad software. […] Table 2. In vitro anti-tumor activity IC50 (µM) of example compounds

[3] = test system: Lung cancer H460; assay: in vitro anti-tumor activity assay (MTT method); assay type: cell-based, human; settings: 48 h of culture
Protocol: as §1, §2

[4] = test system: Prostate cancer LNcap; assay: in vitro anti-tumor activity assay (MTT method); assay type: cell-based, human; settings: culture medium RPMI-1640, 48 h of culture
Protocol: as §1, §2

[5] = test system: Lung cancer A549; assay: in vitro anti-tumor activity assay (MTT method); assay type: cell-based, human; settings: Lung cancer A549, culture medium F12, 48 h of culture
Protocol: as §1, §2

[6] = test system: Prostate cancer PC-3; assay: in vitro anti-tumor activity assay (MTT method); assay type: cell-based, human; settings: Prostate cancer PC-3, culture medium F12, 48 h of culture
Protocol: as §1, §2

[7] = Homo sapiens, NCI-H460, Lung cancer H460, culture medium High-sugar DMEM

| SMILES | IC50 ([2]; Homo sapiens) [µM] | IC50 [3, 7] [µM] | IC50 ([4]; Homo sapiens) [µM] | IC50 ([5]; Homo sapiens) [µM] | IC50 ([6]; Homo sapiens) [µM] | Tumor inhibition rate [1] [%] | Mean tumor weight (g) (mean ± SD) [1] | IC50 [2] [µM] | IC50 ([3]; Lung cancer H460, culture medium High-sugar DMEM) [µM] | IC50 [4] [µM] | IC50 [5] [µM] | IC50 [6] [µM] |
| --- | --- | --- | --- | --- | --- | --- | --- | --- | --- | --- | --- | --- |
| CC1(C)CC(NC[C@H](Cc2ccc(-c3ccccc3)cc2)NC(=O)C=Cc2ccccc2)CC(C)(C)N1 (stereo in doubt) [Cpd014, (S)-N-(1-([1,1'-biphenyl]-4-yl)-3-((2,2,6,6-tetramethylpiperidin-4-yl)amino)propan-2-yl)cinnamamide] | 1.09 | 1.58 | 1.02 | 2.34 | 3.31 | 32.73 | 0.448 ± 0.128 | – | – | – | – | – |
| N.N.[Cl][Pt][Cl] [Cisplati num, Cisplatinum] | – | – | – | – | – | – | – | 30.9 | 20.4 | 11.6 | 34 | 68.6 |
| CC1(C)CC(NC[C@H](Cc2ccc(OCc3c(Cl)cccc3Cl)cc2)NC(=O)C/C=C/c2ccccc2)CC(C)(C)N1 [Cpd001, (S,E)-N-(1-(4-((2,6-dichlor obenzyl)oxy)phenyl)-3-((2,2,6,6-tetramethylpiperidin-4-yl)amino)propan-2-yl)-4-phenylbut-3-enamide] | 0.97 | 0.99 | 3.76 | 2.69 | 3.03 | – | – | – | – | – | – | – |
| CCC(C(=O)N[C@H](CNC1CC(C)(C)NC(C)(C)C1)Cc1ccc(-c2ccccc2)cc1)C1CCCCC1 (stereo partly drawn) [Cpd009, N-((S)-1-([1,1'-biphenyl]-4-yl)-3-((2,2,6,6-tetramethylpiperidin-4-yl)amino)propan-2-yl)-2-cyclohexylbutanamide] | 1.47 | 2.26 | 1.51 | 1.94 | 3.73 | – | – | – | – | – | – | – |
| CC(=O)O[C@@]12CO[C@@H]1C[C@H](O)[C@@]1(C)C(=O)[C@H](O)C3=C(C)[C@@H](OC(=O)[C@H](O)[C@@H](NC(=O)OC(C)(C)C)c4ccccc4)C[C@@](O)([C@@H](OC(=O)c4ccccc4)[C@H]21)C3(C)C [Docetaxol, docetaxel] | – | – | – | – | – | 5.29 | 0.631 ± 0.231 | – | – | – | – | – |

The next lines start with results.

| IC50 ([2]; Homo sapiens) [µM] | IC50 [3, 7] [µM] | IC50 ([4]; Homo sapiens) [µM] | IC50 ([5]; Homo sapiens) [µM] | IC50 ([6]; Homo sapiens) [µM] | SMILES | Tumor inhibition rate [1] [%] | Mean tumor weight (g) (mean ± SD) [1] | IC50 [2] [µM] | IC50 ([3]; Lung cancer H460, culture medium High-sugar DMEM) [µM] | IC50 [4] [µM] | IC50 [5] [µM] | IC50 [6] [µM] |
| --- | --- | --- | --- | --- | --- | --- | --- | --- | --- | --- | --- | --- |
| 1.91 | 2.37 | 1.92 | 4.38 | 4.31 | CC1(C)CC(NC(=O)C(Cc2ccc(-c3ccccc3)cc2)NC(=O)c2cc3ccccc3n2Cc2ccccc2)CC(C)(C)N1 (stereo not drawn) [PL-AC-15] | – | – | – | – | – | – | – |
| 0.43 | 1.65 | 3.24 | 3.05 | 1.65 | COc1ccc2cc(C(C)C(=O)NC(Cc3ccc(-c4ccccc4)cc3)C(=O)NC3CC(C)(C)NC(C)(C)C3)ccc2c1 (stereo not drawn) [PL-AC-202] | 19.37 | 0.537 ± 0.198 | – | – | – | – | – |
